# Reference: paper PMC10178848, “Modulating fast skeletal muscle contraction protects skeletal muscle in animal models of Duchenne muscular dystrophy” (The Journal of Clinical Investigation, 2023)
# Test system: GRMD plasma proteins
# Format: in vivo, dog
# Conditions: Post-Treatment to GRMD baseline; Increased in GRMD
smiles,measurement,value
O=c1ccc(-c2cnc(OCC(F)(F)F)nc2)nn1Cc1cncc(F)c1 [EDG-5506],Change from GRMD Baseline (fraction): Apolipoprotein E (isoform E3) (APOE),0.08 fraction
same,Change from GRMD Baseline (fraction): Apolipoprotein E (isoform E4) (APOE),0.1456 fraction
same,Change from GRMD Baseline (fraction): Apoptosis regulator Bcl-2 (BCL2),0.0105 fraction
same,Change from GRMD Baseline (fraction): Artemin (ARTN),-0.0439 fraction
same,Change from GRMD Baseline (fraction): Arylsulfatase B (ARSB),-0.1402 fraction
same,Change from GRMD Baseline (fraction): B-cell receptor CD22 (CD22),-0.069 fraction
same,Change from GRMD Baseline (fraction): Baculoviral IAP repeat-containing protein 5 (BIRC5),0.0116 fraction
same,Change from GRMD Baseline (fraction): Basal Cell Adhesion Molecule (BCAM),-0.0408 fraction
same,Change from GRMD Baseline (fraction): Bcl-2-like protein 1 (BCL2L1),0.0111 fraction
same,Change from GRMD Baseline (fraction): Bone sialoprotein 2 (IBSP),-0.0621 fraction
same,Change from GRMD Baseline (fraction): C-C motif chemokine 13 (CCL13),-0.0609 fraction
same,Change from GRMD Baseline (fraction): C-C motif chemokine 23 (CCL23),-0.0197 fraction
same,Change from GRMD Baseline (fraction): CCAAT/enhancer-binding protein beta (CEBPB),-0.0884 fraction
same,Change from GRMD Baseline (fraction): CD59 glycoprotein (CD59),0.0101 fraction
same,Change from GRMD Baseline (fraction): Calcineurin (PPP3CA PPP3R1),-0.1169 fraction
same,Change from GRMD Baseline (fraction): Calcineurin subunit B type 1 (PPP3R1),0.0394 fraction
same,Change from GRMD Baseline (fraction): Calcium/calmodulin-dependent protein kinase type 1 (CAMK1),-0.0409 fraction
same,Change from GRMD Baseline (fraction): Calcium/calmodulin-dependent protein kinase type 1D (CAMK1D),-0.0326 fraction
same,Change from GRMD Baseline (fraction): Calcium/calmodulin-dependent protein kinase type II subunit alpha (CAMK2A),-0.2874 fraction
same,Change from GRMD Baseline (fraction): Calcium/calmodulin-dependent protein kinase type II subunit beta (CAMK2B),-0.2753 fraction
same,Change from GRMD Baseline (fraction): Calcium/calmodulin-dependent protein kinase type II subunit delta (CAMK2D),-0.216 fraction
same,Change from GRMD Baseline (fraction): Calpain I (CAPN1 CAPNS1),0.0953 fraction
same,Change from GRMD Baseline (fraction): Calpastatin (CAST),-0.0561 fraction
same,Change from GRMD Baseline (fraction): Carbonic anhydrase 3 (CA3),-0.1807 fraction
same,Change from GRMD Baseline (fraction): Cardiotrophin-1 (CTF1),-0.0345 fraction
same,Change from GRMD Baseline (fraction): Catalase (CAT),-0.0112 fraction
same,Change from GRMD Baseline (fraction): Choline/ethanolamine kinase (CHKB),-0.0392 fraction
same,Change from GRMD Baseline (fraction): Chymase (CMA1),-0.0173 fraction
same,Change from GRMD Baseline (fraction): Clusterin (CLU),0.1057 fraction
same,Change from GRMD Baseline (fraction): Complement component C6 (C6),0.2667 fraction
same,Change from GRMD Baseline (fraction): Complement component C8 (C8A C8B C8G),0.004 fraction
same,Change from GRMD Baseline (fraction): Complement factor D (CFD),0.0267 fraction
same,Change from GRMD Baseline (fraction): Creatine kinase M-type (CKM),-0.092 fraction
same,Change from GRMD Baseline (fraction): Creatine kinase M-type:Creatine kinase B-type heterodimer (CKB CKM),-0.1124 fraction
same,Change from GRMD Baseline (fraction): Cyclin-dependent kinase inhibitor 1B (CDKN1B),-0.1243 fraction
same,Change from GRMD Baseline (fraction): Cysteine and glycine-rich protein 3 (CSRP3),-0.1208 fraction
same,Change from GRMD Baseline (fraction): Cytochrome c (CYCS),-0.3895 fraction
same,Change from GRMD Baseline (fraction): DNA repair protein RAD51 homolog 1 (RAD51),0.0454 fraction
same,Change from GRMD Baseline (fraction): Desmoglein-1 (DSG1),0.0063 fraction
same,Change from GRMD Baseline (fraction): Dickkopf-like protein 1 (DKKL1),-0.0126 fraction
same,Change from GRMD Baseline (fraction): Down syndrome cell adhesion molecule (DSCAM),-0.0254 fraction
same,Change from GRMD Baseline (fraction): Dual specificity mitogen-activated protein kinase kinase 1 (MAP2K1),-0.2424 fraction
same,Change from GRMD Baseline (fraction): Dual specificity protein phosphatase 3 (DUSP3),-0.1403 fraction
same,Change from GRMD Baseline (fraction): Dynein light chain roadblock-type 1 (DYNLRB1),-0.3202 fraction
same,Change from GRMD Baseline (fraction): Ectonucleoside triphosphate diphosphohydrolase 1 (ENTPD1),-0.0389 fraction
same,Change from GRMD Baseline (fraction): Endothelin-converting enzyme 1 (ECE1),-0.0078 fraction
same,Change from GRMD Baseline (fraction): Ephrin type-A receptor 1 (EPHA1),-0.0034 fraction
same,Change from GRMD Baseline (fraction): Ephrin type-B receptor 6 (EPHB6),0.0412 fraction
same,Change from GRMD Baseline (fraction): Epidermal growth factor (EGF),-0.0427 fraction
same,Change from GRMD Baseline (fraction): Epidermal growth factor receptor variant III (EGFR),-0.0407 fraction
same,Change from GRMD Baseline (fraction): Erythropoietin receptor (EPOR),-0.0103 fraction
same,Change from GRMD Baseline (fraction): Estrogen receptor (ESR1),-0.0238 fraction
same,Change from GRMD Baseline (fraction): Eukaryotic translation initiation factor 4H (EIF4H),-0.3775 fraction
same,Change from GRMD Baseline (fraction): Eukaryotic translation initiation factor 4 gamma 2 (EIF4G2),-0.2701 fraction
same,Change from GRMD Baseline (fraction): Extracellular matrix protein 1 (ECM1),0.014 fraction
same,Change from GRMD Baseline (fraction): Fibroblast growth factor 8 isoform B (FGF8),-0.0376 fraction
same,Change from GRMD Baseline (fraction): Fibroblast growth factor 9 (FGF9),-0.0507 fraction
same,Change from GRMD Baseline (fraction): Fibronectin Fragment 4 (FN1),-0.0265 fraction
same,Change from GRMD Baseline (fraction): Follistatin (FST),-0.0231 fraction
same,Change from GRMD Baseline (fraction): Fractalkine (CX3CL1),0.0106 fraction
